Assay results as given in patent publication US9862713B2, “Substituted bicyclic heteroaryl compounds as RXR agonists” (CONNEXIOS LIFE SCIENCES PVT. LTD., priority 2014, dated 2018).

Columns and labels:
Male Wistar rats = experiment: Isoprenaline induced cardiac hypertrophy in rats; type: in vivo; details: 10 mg/kg, p.o., q.d., 11 weeks
Experimental: Male Wistar rats of fourteen weeks age were housed under controlled temperature 22±3° C., relative humidity 50-70%, 12 hour light and 12 hour dark cycle with artificial fluorescent tubes. Animals were acclimatized for seven days. On eight day animals were randomized based on their body weights and allotted into nine animals/group. Different groups into which animals allotted were G1: Vehicle control, G2: Isoprenaline control (5 mg/kg, s.c. twice a week) and G3: Isoprenaline (5 mg/kg, s.c. twice a week)+Compound 40 (10 mg/kg, p.o., q.d.). Treatment with Compound 40 (10 mpk) for G3 group was started one week prior to isoprenaline administration and both the treatments were continued for eleven weeks. The animals were monitored for daily feed consumption and weekly body weight throughout the study. At the end of treatment period (Week 11) five animals from each group were subjected to Cardiovascular hemodynamic assessment by Millar catheter using MPVS Ultra control interface connected to AD power lab, AD instruments. Different parameters measured were heart rate, stroke work, stroke volume, cardiac output, left ventricular systolic pressure, left ventricular diastolic pressure, left ventricular diastolic volume Immediately after hemodynamic estimation terminal blood from all the animals were collected followed by the collection of hearts. All the separated serum samples were used for estimation of several cardiac markers like ANP, BNP, CRP, LDH, CKN, CKMB and SGOT. Collected hearts were examined for histopathological changes and gene expression studies. All the numerical output was expressed as Mean±SEM, one way ANOVA followed by Dunnets' test using Graph pad prism software.

DIO mice = experiment: Compound 40 with exercise on metabolic profile in DIO mice; exercise endurance (tread mill) test; type: in vivo, male C57BL/6J mice
Experimental: Exercise endurance test or tread mill test (TMT): Exercise endurance test was accomplished on a motor treadmill at a low to moderate intensity of 5-20 cm/sec as maximal running speed with an intensity of 0.2 mA shock and one degree of inclination. The animals were subjected for TMT till exhaustion and different observations like distance traveled (cm), time spent on shock zone (sec), number of shocks, total time (min) were measured for all the mice in different groups.
Six week old male C57BL/6J mice were selected, acclimatized for a period of 1 week, Animals were assigned to either chow (10% kcal from fat) or high fat diet (HFD) (D12492; 60% kcal from fat), Research Diets, Inc., New Jersey, USA. After 11 weeks of the diet intervention, the HFD fed animals were assigned to specific treatment groups based upon body weight, glucose AUC during OGTT, fasting and fed blood glucose and fasting TG. The lean control mice (n=10) were fed with normal chow diet while the treatment group (n=10) and HFD Control (n=10), with and without exercise training, with high fat diet throughout the experimental period. Treatment group received Compound 40 with and without exercise training, at a dose of 10 mg/kg b.wt, once daily, po as suspension in 1% MC (methyl cellulose) as vehicle. Lean control and HFD controls animals were administered with vehicle. Exercise training was accomplished on a motor treadmill at a low to moderate intensity of 5-20 cm/sec as maximal running speed with an intensity of 0.2 mA shock and one degree of inclination. The animals were adapted to this procedure 5 days a week and different observations like distance traveled (cm), time spent on shock zone (sec), number of shocks, total time (min) will be measured for all the mice in different groups. Weekly body weight & daily feed consumption was recorded. The blood collected from tail vein was subjected for estimation of glucose and TG. OGTT was performed in 6 h fasted mice with 2 g/kg, of oral glucose challenge after 4 and 8 weeks of treatment. Then animals were euthanized and necropsied, the liver was excised immediately, weighed and taken to estimate liver triglyceride (TG). Different adipose depots were separated and weighed.

Which results are given for CC1(C)CCC(C)(C)c2sc(N(CC3CC3)c3ccc(C(=O)O)cn3)nc21 [Compound 40, 6-[(Cyclopropylmethyl) (4,4,7,7-tetramethyl-4,5,6,7-tetrahydro-1,3-benzothiazol-2-yl)amino]pyridine-3-carboxylic acid]?
absolute heart weight (Male Wistar rats; isoprenaline 5 mg/kg, s.c. twice a week): substantial reduction; Stroke volume (SV) (Male Wistar rats; isoprenaline): significant improvement; Stroke work (SW) (Male Wistar rats; isoprenaline): significant improvement; cardiac output (Male Wistar rats; isoprenaline): improved; ejection fraction (Male Wistar rats; isoprenaline): improved; heart rate (Male Wistar rats; isoprenaline): improved; thickness of the septum (Male Wistar rats; isoprenaline): significant reduction; thickness of the ventricular wall (Male Wistar rats; isoprenaline): significant reduction; ventricular refilling (Male Wistar rats; isoprenaline): improvement in ventricular refilling; Body weight (DIO mice; 10 mg/kg b.wt, once daily, po): improvement was also observed; OGTT levels (DIO mice; 10 mg/kg b.wt, once daily, po): significant improvement; fasting TG levels (DIO mice; 10 mg/kg b.wt, once daily, po): improvement was also observed; fasting glucose (DIO mice; 10 mg/kg b.wt, once daily, po): significant improvement; muscle endurance (DIO mice; DIO mice, tread mill test): significantly improves muscle endurance
